Data as given in US5856309A, “Amidinopyrroline derivatives, processes for their production and pharmaceutical agents containing these compounds” (Boehringer Mannheim GmbH, priority 1997, dated 1999).

Columns and labels:
[1] = molecular target: isolated activated GpIIb/IIIa receptor (Homo sapiens, UniProt P05106+P08514); experiment: GpIIb/IIIa fibrinogen Elisa; details: inhibition of fibrinogen binding to coated GpIIb/IIIa receptor, optical density at 405 nm
Experimental: The GpIIb/IIIa fibrinogen Elisa is a modification of assays which are described in the following literature: Nachman, R. L. & Leung, L. L. K. (1982): J. Clin. Invest. 69: 263-269 and Wright, P. S. et al. (1993): Biochem. J. 293:263-267.
Microtiter plates were coated overnight with 2 μg/ml isolated activated GpIIb/IIIa receptor. After unbound receptor had been removed by washing several times the surface of the plates is blocked with 1% casein and it is washed again. The test substance is added at the required concentrations and the plates are incubated for 10 minutes while shaking. The natural ligand of the gpIIb/IIIa receptor, fibrinogen, is added. After incubating for 1 hour unbound fibrinogen is removed by washing several times and the bound fibrinogen is determined by means of a peroxidase-conjugated, anti-fibrinogen monoclonal antibody by measuring the optical density at 405 nm in an ELISA instrument. The inhibition of a fibrinogen-GpIIb/IIIa interaction results in a low optical density. The IC50 value was determined by a concentration/effect curve.

horse thrombin = experiment: Thrombin time in citrate plasma (sphere coagulometer); format: biochemical; details: citrate plasma of healthy donors, 37° C., control ca. 24 seconds
Experimental: A common test in clinical coagulation diagnostics is the thrombin time. This parameter detects the action of thrombin on fibrinogen and the formation of blood clots. Inhibitors of thrombin result in an increased thrombin time.
In order to obtain plasma 9 parts fresh blood from healthy donors are mixed with one part sodium citrate solution (0.11 mol/l) and centrifuged at ca. 3000 rpm for 10 min at room temperature. The plasma was removed by pipette and can be stored for ca. 8 h at room temperature.
200 ul citrate plasma was incubated for 2 min at 37° C. in a sphere coagulometer (KC10 from the Amelung Company). 10 ul dimethylsulfoxide (DMSO) or a solution of the active substance in DMSO was added to 190 ul preheated thrombin reagent (Boehringer Mannheim, GmbH; contains ca. 3 U/ml horse thrombin and 0.0125M Ca2+). A stopwatch was started when this 200 ul solution was added to the plasma and the time point at which coagulation starts was determined. […] [* the experiment was stopped after 5 minutes.]

[2] = molecular target: T1, bovine pancreatic trypsin (Bos taurus, UniProt P00760); experiment: Inhibition of trypsin, kinetic measurement as described for thrombin; format: biochemical; details: measured as described for thrombin, read-out: inhibition constant Ki (trypsin)
T1 construct: purchased Sigma
T1 sequence (P00760 24-246): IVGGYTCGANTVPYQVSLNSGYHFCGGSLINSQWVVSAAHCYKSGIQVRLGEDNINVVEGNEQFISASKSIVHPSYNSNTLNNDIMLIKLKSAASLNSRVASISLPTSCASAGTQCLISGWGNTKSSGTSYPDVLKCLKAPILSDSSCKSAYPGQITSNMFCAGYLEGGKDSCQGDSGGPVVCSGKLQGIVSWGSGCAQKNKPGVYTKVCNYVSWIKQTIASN
Experimental: The kinetic measurements were carried out in 0.1M phosphate buffer which contained 0.2M sodium chloride and 0.5% polyethylene glycol 6000 at a pH=7.5 and 25° C. using the substrate H-(D)-Phe-Pro-Arg-pNA (S-2238 Kabi) and human thrombin (Sigma, specific activity=2150 NIH units/mg) in polystyrene semimicro-cuvettes in a total volume of 1 ml.
For this the reaction was started first by adding 0.03 NIH units thrombin to a 100 μM solution of the substrate and the active substance. In a second experiment substrate was added to a solution of thrombin and the active substance which had been incubated for 5 min. The increase of the concentration of p-nitro-anilide with time was monitored spectrophotometrically for 12 min at 405 nm (UV-VIS spectrophotometer Lambda-2 from the Perkin-Elmer Company). […] The inhibition constant Ki was determined as follows. […] The increase in absorbance at 405 nm caused by the formation of p-nitroanilide was monitored for a time period of 12 min. Measurement points (time versus absorbance) were transferred to a PC at intervals of 20 sec. The rates Vo (changes in absorbance per see; measurements without inhibitor) and Vi (measurements with inhibitor) were determined from the data by linear regression. […] From one measurement series (constant inhibitor concentration, variable substrate concentrations) Km' and Vmax were determined by a non-linear fit to the equation [formula] […]

Chain of isolated activated GpIIb/IIIa receptor (P08514 32-887 limits assumed): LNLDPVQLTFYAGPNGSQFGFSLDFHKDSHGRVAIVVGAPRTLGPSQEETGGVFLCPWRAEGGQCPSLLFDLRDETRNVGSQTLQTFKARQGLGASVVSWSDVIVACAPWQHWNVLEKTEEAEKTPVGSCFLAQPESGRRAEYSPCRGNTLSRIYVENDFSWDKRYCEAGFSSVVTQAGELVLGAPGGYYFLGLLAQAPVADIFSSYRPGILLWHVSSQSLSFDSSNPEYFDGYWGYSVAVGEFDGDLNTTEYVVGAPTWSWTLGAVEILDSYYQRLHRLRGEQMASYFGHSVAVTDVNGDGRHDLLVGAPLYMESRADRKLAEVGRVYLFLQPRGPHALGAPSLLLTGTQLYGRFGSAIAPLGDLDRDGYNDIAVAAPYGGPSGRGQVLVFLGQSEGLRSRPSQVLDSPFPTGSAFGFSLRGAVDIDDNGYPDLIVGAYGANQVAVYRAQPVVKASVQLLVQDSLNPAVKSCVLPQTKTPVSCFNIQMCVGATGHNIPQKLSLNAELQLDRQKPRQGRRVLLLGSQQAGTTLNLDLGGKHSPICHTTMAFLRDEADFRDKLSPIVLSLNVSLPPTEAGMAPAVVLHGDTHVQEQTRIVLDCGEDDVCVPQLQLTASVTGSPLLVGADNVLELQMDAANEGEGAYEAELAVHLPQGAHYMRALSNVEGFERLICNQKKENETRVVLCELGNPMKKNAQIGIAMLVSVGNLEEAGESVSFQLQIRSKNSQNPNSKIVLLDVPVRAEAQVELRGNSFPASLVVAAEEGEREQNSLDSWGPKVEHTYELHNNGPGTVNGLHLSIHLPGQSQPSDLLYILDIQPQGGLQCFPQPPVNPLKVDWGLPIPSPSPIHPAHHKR
Chain of isolated activated GpIIb/IIIa receptor (P08514 891-1039 partner limits assumed): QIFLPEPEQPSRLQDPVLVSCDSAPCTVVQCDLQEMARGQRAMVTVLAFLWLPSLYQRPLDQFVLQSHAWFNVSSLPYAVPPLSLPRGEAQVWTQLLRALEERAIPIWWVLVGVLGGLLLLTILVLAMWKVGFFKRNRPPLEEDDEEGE
Chain of isolated activated GpIIb/IIIa receptor (P05106 27-788): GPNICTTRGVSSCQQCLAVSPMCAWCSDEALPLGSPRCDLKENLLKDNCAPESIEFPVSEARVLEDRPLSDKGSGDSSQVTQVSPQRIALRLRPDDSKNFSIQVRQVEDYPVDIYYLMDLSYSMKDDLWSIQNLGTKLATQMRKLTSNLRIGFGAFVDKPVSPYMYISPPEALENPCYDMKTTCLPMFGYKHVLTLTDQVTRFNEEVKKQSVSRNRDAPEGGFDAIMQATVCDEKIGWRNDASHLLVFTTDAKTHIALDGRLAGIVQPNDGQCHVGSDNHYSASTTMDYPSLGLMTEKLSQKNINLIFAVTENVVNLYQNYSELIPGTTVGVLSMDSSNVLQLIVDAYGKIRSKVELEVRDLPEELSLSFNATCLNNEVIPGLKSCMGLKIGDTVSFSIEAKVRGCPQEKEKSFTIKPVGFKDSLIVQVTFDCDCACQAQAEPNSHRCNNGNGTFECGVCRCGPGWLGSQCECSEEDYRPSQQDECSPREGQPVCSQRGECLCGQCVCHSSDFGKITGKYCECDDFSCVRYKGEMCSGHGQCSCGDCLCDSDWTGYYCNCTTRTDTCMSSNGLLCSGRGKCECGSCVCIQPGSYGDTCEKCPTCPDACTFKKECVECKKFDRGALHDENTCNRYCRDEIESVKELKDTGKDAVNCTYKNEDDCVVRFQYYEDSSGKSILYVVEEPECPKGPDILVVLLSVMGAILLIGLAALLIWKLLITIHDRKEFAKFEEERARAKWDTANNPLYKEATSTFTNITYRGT

Row | Compound | IC50 [1] | further results
1 | N=C(N)N1CC=C(CC(NC(=O)OCC(Cl)(Cl)Cl)C(=O)NCC(=O)N[C@@H](CC(=O)O)C(=O)N[C@@H](CO)C(=O)O)C1 (stereo partly drawn) [Example 7, Troc-Ada-Gly-Asp-Ser] | 14400 nM | –
2 | N=C(N)N1CC=C(CC(NC(=O)OCC(Cl)(Cl)Cl)C(=O)NCC(=O)N[C@@H](CC(=O)O)C(=O)N[C@@H](Cc2c[nH]c3ccccc23)C(=O)O)C1 (stereo partly drawn) [Example 8, Troc-Ada-Gly-Asp-Trp] | 400 nM | –
3 | N=C(N)N1CC=C(CC(NC(=O)OCC(Cl)(Cl)Cl)C(=O)NCC(=O)N[C@@H](CC(=O)O)C(=O)N[C@@H](Cc2ccccc2)C(=O)O)C1 (stereo partly drawn) [Example 9, Troc-Ada-Gly-Asp-Phe] | 2300 nM | –
4 | N=C(N)N1CC=C(CC(N)C(=O)NCC(=O)N[C@@H](CC(=O)O)C(=O)N[C@@H](Cc2ccc(O)cc2)C(=O)O)C1 (stereo partly drawn) [Example 10, Ada-Gly-Asp-Tyr] | 2400 nM | –
5 | D-Pla-D-Phe-L-Choi-Adc [Example 1] | – | increase of thrombin time (horse thrombin; test concentration 3.5 nM): 5 s; increase of thrombin time (horse thrombin; test concentration 34 nM): 65 s; increase of thrombin time (horse thrombin; test concentration 340 nM, experiment stopped after 5 minutes): > 300 s; Ki [2]: 100 nM
